Source: US20230017597A1, “8-SUBSTITUTED STYRYL XANTHINE DERIVATIVES AND USES THEREOF” (SUNSHINE LAKE PHARMA CO., LTD., priority 2019, published 2023)

Legend:
[1] = Pharmacokinetic evaluation in rats after intravenous or gavage administration; type: in vivo, SD rats; settings: for AUC(0-inf) / AUC(0-t) / Cmax / MRT inf / Tmax / clearance / half-life / Vd: SD, rat, plasma; for Vd: read-out: Vss; for F: gavage 5 mg/kg vs intravenous 1 mg/kg
Description: (§1) The LC-MS/MS system for analysis includes the Agilent 1200 series vacuum degasser, a quaternary pump, an orifice plate sampler, a thermostatted column oven, and an API4000Qtrap triple quadrupole mass spectrometer with an electrospray ionization source (ESI).
(§2) Waters ACQUITY UPLC CSH C18, 2.1×50 mm, 1.7 μm column was used for analysis, and 0.8 μL of sample was injected. Analytical conditions: mobile phase was H2O+2 mM HCOONH4 (ammonium formate)+0.1% FA (formic acid) (mobile phase A) and MeOH (methanol)+2 mM HCOONH4 (ammonium formate)+0.1% FA (formic acid) (mobile phase B). Flow rate was 0.7 mL/min.
The experiment was divided into two groups: one was administered by intravenous injection, and the other was administered by intragastric administration. The compound of the present invention was administered to a test animal (overnight fast for 12 hours) in the form of 10% DMA (heating)+60% PEG400+30% saline solution. For the group of intravenous administration, the administration dose was 1 mg/kg, and vein blood samples (0.3 mL) were collected at the time points of 0.083, 0.25, 0.5, 1.0, 2.0, 5.0, 7.0 and 24 h after administration. EDTA-K2 as anticoagulant was added into the blood vessel. The plasma solutions were collected by centrifuging each blood sample at 3,000 rpm or 4,000 rpm for 10 minutes and kept at −20° C. or −70° C. For the group of intragastric administration, the administration dose was 5 mg/kg, and vein blood samples (0.3 mL) were collected at the time points of 0.25, 0.5, 1.0, 2.0, 5.0, 7.0 and 24 h after administration. EDTA-K2 as anticoagulant was added into the blood vessel. The plasma solutions were collected by centrifuging each blood sample at 3,000 rpm or 4,000 rpm for 10 minutes and kept at −20° C. or −70° C.
20 μL of plasma was taken, 120 μL of IS working solution was added to the plasma, and the plasma was vortexed for 2 min. The mixed solution was then centrifuged at 12,000 rpm for 2 min. 100 μL of the supernatant was taken, 110 μL of MeOH/H2O (v/v=1/1) was added, and the solution was vortexed for 2 minutes, then 5 μL was taken for injection into the LC-MS/MS system. LC-MS/MS method was used to detect the concentration of target compounds, and non-compartment model was used to calculate pharmacokinetic parameters.

[2] = target: T1, human adenosine A2A receptor (Homo sapiens, UniProt P29274); assay: Antagonizing effect on human adenosine A2A receptor (NECA-stimulated cAMP, TR-FRET, HEK-293 cells); type: cell-based; settings: inhibition of cAMP produced by NECA (3 nM), HEK-293 cells expressing human recombinant A2A receptor
T1 construct: expressed in transfected cells; host or cells: HEK-293
Description: The experimental system uses human recombinant adenosine A2A receptor, which is stably expressed in HEK-293 cell line. HEK-293 cells were inoculated into culture plate at a density of 1.25×10^5 cells/mL. The medium was changed by modified HBSS solution with pH 7.4, different concentrations of test compounds ([…], 1 μM, […], 10 nM, 1 nM, 0.1 nM) and solvents (PBS with 0.1% DMSO) were added, and the plate was incubated at 37° C. for 10 min. cAMP (cyclic adenosine monophosphate) concentration in culture medium was detected by TR-FRET method. NECA was used as a positive control in this experiment, (1) test compounds alone were used to stimulate cells to produce a certain amount of cAMP, and then NECA (0.1 μM) alone was used to stimulate cells to produce a certain amount of cAMP. A test compound is considered to have agonistic activity on adenosine A2A receptor if the test compound alone stimulates cells to produce cAMP more than 50% of the amount of cAMP produced by NECA (0.1 μM) alone. (2) All cells were first incubated with test compounds and then stimulated with NECA (3 nM). In addition, NECA (3 nM) alone was used to stimulate cells to produce a certain amount of cAMP. […] IC50 was calculated using MathIQ™ (ID Business Solutions Ltd., UK) through nonlinear, least squares regression equation analysis.

[3] = Pharmacokinetic evaluation in beagles after intravenous or gavage administration; type: in vivo; settings: for AUC(0-inf) / AUC(0-t) / Cmax / MRT inf / Tmax / clearance / half-life / Vd: beagle, dog, plasma; for Vd: read-out: Vss; for F: gavage 2.5 mg/kg vs intravenous 0.5 mg/kg
Description: The test animals are mice and/or dogs.
as §1
as §2, with “A waters xbridge C18 UPLC,” for “Waters ACQUITY UPLC CSH C18,”, “[…]” for “1.7 μm”, “analysis” for “analysis,”, “0.5” for “0.8”, “The flow” for “Flow”
The experiment was divided into two groups: one was administered by intravenous injection, and the other was administered by intragastric administration. The compound of the present invention was administered to test animals in the form of 10% DMA+60% PEG400+30% saline solution. […] Each blood sample was centrifuged at 3,000 rpm or 4,000 rpm for 10 minutes. The plasma solutions were collected and anticoagulant was EDTA-K2. The plasma solutions were then kept at −20° C. or −70° C. […]
10 μL of plasma was taken, 120 μL of IS working solution was added to the plasma, and the plasma was vortexed for 2 min. The mixed solution was then centrifuged at 12,000 rpm for 2 min. 80 μL of the supernatant was taken, 140 μL of MeOH/H2O (v/v=1/1) was added, and the solution was vortexed for 2 minutes, then 1.0 μL was taken for injection into the LC-MS/MS system. LC-MS/MS method was used to detect the concentration of target compounds, and non-compartment model was used to calculate pharmacokinetic parameters.

[4] = intravenous injection, 0.5 mg/kg

T1 sequence (P29274 whole entry): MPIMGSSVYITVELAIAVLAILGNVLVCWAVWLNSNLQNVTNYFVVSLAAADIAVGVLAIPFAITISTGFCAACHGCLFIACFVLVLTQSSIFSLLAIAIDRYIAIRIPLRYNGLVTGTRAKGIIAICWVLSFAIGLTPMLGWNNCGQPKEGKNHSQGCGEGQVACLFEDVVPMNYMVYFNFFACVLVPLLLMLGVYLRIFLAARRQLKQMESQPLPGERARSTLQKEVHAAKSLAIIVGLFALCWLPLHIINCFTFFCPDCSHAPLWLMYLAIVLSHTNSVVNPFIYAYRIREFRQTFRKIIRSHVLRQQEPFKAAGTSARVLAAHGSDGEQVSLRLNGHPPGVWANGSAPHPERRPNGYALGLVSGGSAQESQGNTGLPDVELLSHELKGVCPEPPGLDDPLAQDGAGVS

Row | AUC(0-inf) ([1]; intravenous injection, 1 mg/kg) | AUC(0-t) ([1]; intravenous injection, 1 mg/kg) | Cmax ([1]; intravenous injection, 1 mg/kg) | MRT inf ([1]; intravenous injection, 1 mg/kg) | Tmax ([1]; intravenous injection, 1 mg/kg) | clearance ([1]; intravenous injection, 1 mg/kg) | half-life ([1]; intravenous injection, 1 mg/kg) | Vd ([1]; intravenous injection, 1 mg/kg) | AUC(0-inf) ([1]; po, gavage, 5 mg/kg) | AUC(0-t) ([1]; po, gavage, 5 mg/kg) | Cmax ([1]; po, gavage, 5 mg/kg) | MRT inf ([1]; po, gavage, 5 mg/kg) | Tmax ([1]; po, gavage, 5 mg/kg) | half-life ([1]; po, gavage, 5 mg/kg) | F [1] | IC50 [2] | AUC(0-inf) [3, 4] | AUC(0-t) [3, 4] | Cmax [3, 4] | MRT inf [3, 4] | Structure (SMILES) | also measured
1 | 6.29 µg·h/mL | 6.23 µg·h/mL | 1.61 µg/mL | 4.37 h | 0.083 h | 0.159 L/h/kg | 3.82 h | 0.696 L/kg | 40.4 µg·h/mL | 36.9 µg·h/mL | 2.93 µg/mL | 9.22 h | 1.5 h | 6.96 h | 118.4% | 0.35 µM | 6.11 µg·h/mL | 5.83 µg·h/mL | 0.634 µg/mL | 7.37 h | CCn1c(=O)c2c(nc(/C=C/c3ccc(OC4CCN(C(C)=O)CC4)cc3)n2C)n(CC)c1=O [Example 6, (E)-8-(4-((1-acetylpiperidin-4-yl)oxy)styryl)-1,3-diethyl-7-methyl-1H-purine-2,6 (3H,7H)-dione] | Tmax [3, 4]: 0.25 h; clearance [3, 4]: 0.0816 L/h/kg; half-life [3, 4]: 5.81 h; Vd [3, 4]: 0.604 L/kg; AUC(0-inf) ([3]; po, gavage, 2.5 mg/kg): 56.5 µg·h/mL; AUC(0-t) ([3]; po, gavage, 2.5 mg/kg): 47.2 µg·h/mL; Cmax ([3]; po, gavage, 2.5 mg/kg): 3.32 µg/mL; MRT inf ([3]; po, gavage, 2.5 mg/kg): 12.5 h; Tmax ([3]; po, gavage, 2.5 mg/kg): 2.67 h; half-life ([3]; po, gavage, 2.5 mg/kg): 9.11 h; F [3]: 170.5%
2 |  |  |  |  |  |  |  |  |  |  |  |  |  |  |  | 0.55 µM |  |  |  |  | CCn1c(=O)c2c(nc(/C=C/c3ccc(OC4CCNCC4)cc3)n2C)n(CC)c1=O [Example 1, (E)-1,3-diethyl-7-methyl-8-(4-(piperidin-4-yloxy)styryl)-1H-purine-2,6(3H,7H)-dione] | 
3 | 1.83 µg·h/mL | 1.81 µg·h/mL | 0.817 µg/mL | 3.1 h | 0.083 h | 0.546 L/h/kg | 4.64 h | 1.69 L/kg | 11.9 µg·h/mL | 11.9 µg·h/mL | 2.03 µg/mL | 4.07 h | 1.67 h | 2.8 h | 131.5% | 0.75 µM | 6.31 µg·h/mL | 4.99 µg·h/mL | 0.775 µg/mL | 14.4 h | CCn1c(=O)c2c(nc(/C=C/c3ccc(OC4CCN(S(C)(=O)=O)CC4)cc3)n2C)n(CC)c1=O [Example 8, (E)-1,3-diethyl-7-methyl-8-(4-((1-(methylsulfonyl)piperidin-4-yl)oxy)styryl)-1H-purine-2,6(3H, 7H)-dione] | Tmax [3, 4]: 0.083 h; clearance [3, 4]: 0.0792 L/h/kg; half-life [3, 4]: 9.43 h; Vd [3, 4]: 1.14 L/kg; AUC(0-inf) ([3]; po, gavage, 2.5 mg/kg): 31.8 µg·h/mL; AUC(0-t) ([3]; po, gavage, 2.5 mg/kg): 22.7 µg·h/mL; Cmax ([3]; po, gavage, 2.5 mg/kg): 1.72 µg/mL; MRT inf ([3]; po, gavage, 2.5 mg/kg): 18.1 h; Tmax ([3]; po, gavage, 2.5 mg/kg): 0.667 h; half-life ([3]; po, gavage, 2.5 mg/kg): 11.5 h; F [3]: 91.1%
4 |  |  |  |  |  |  |  |  |  |  |  |  |  |  |  | 1.48 µM |  |  |  |  | CCN1CCC(Oc2ccc(/C=C/c3nc4c(c(=O)n(CC)c(=O)n4CC)n3C)cc2)CC1 [Example 3, (E)-1,3-diethyl-7-methyl-8-(4-((1-ethylpiperidin-4-yl)oxy)styryl)-1H-purine-2,6(3H,7H)-dione] | 
